Measured values reported in PMC12647645, “Structural interactions of BWC0977 with Klebsiella pneumoniae topoisomerase IV and biochemical basis of its broad-spectrum activity” (Communications Biology, 2025).
In brackets after ≈: the same amount, converted by molar mass. Read-outs that look alike come from different tables or passages of the source.

Assays:
E. cloacae = conditions: ref 6 (Hameed P et al., 2024); cited from earlier work
K. pneumoniae BAA 2784 = test: microbe, parasite or virus in culture; format: cell-based; conditions: Klebsiella pneumoniae, BAA2784
[1] = test system: E. coli MG1655 (GyrA WT, ParC WT); test: microbe, parasite or virus in culture; format: cell-based; conditions: Escherichia coli
K. pneumoniae ATCC 13883 = test: MIC broth microdilution; format: cell-based; conditions: Klebsiella pneumoniae, ATCC13883
E. coli topoisomerase IV = target: T1, E. coli topoisomerase IV (Escherichia coli, UniProt P0AFI2+P20083); test: Topoisomerase IV cleavage-complex assay; format: biochemical
T1 construct: purchased Inspiralis
Procedure: Reactions were stopped by adding 3.8 μL of a stop solution containing 0.8 μL Proteinase K (20 mg/mL) and 3 μL SDS (2%), followed by incubation at 37 °C for 60 min. Afterward, 4 μL of STEB loading buffer was added, and samples were run on pre-stained 0.8% agarose gels containing 0.4 μg/mL ethidium bromide. […] The % nicked and linear DNA formed with varying compound concentrations was plotted for comparison.

A. baumannii = test system: A. baumannii; parameters: method as in ref 6 (Hameed P et al., 2024); conditions: ref 6 (Hameed P et al., 2024); cited from earlier work
E. coli wild-type strain = test: MIC, wild-type strain; format: cell-based; conditions: Escherichia coli
E. coli ATCC 25922 = conditions: >4× MIC; cited from earlier work
A. baumannii ATCC 19606 = test: MIC broth microdilution; format: cell-based; conditions: Acinetobacter baumannii
P. aeruginosa BAA 2794 = test: microbe, parasite or virus in culture; format: cell-based; conditions: Pseudomonas aeruginosa, BAA2794
[2] = test system: A. baumannii ATCC 19606 resistant mutant colonies (mutant 1-5); test: microbe, parasite or virus in culture; format: cell-based; conditions: Acinetobacter baumannii
[3] = target: P. aeruginosa topoisomerase IV (Pseudomonas aeruginosa, UniProt Q9HUJ8+Q9HUK1); test: Topoisomerase IV decatenation assay, P. aeruginosa; format: biochemical; parameters: Topo IV decatenation inhibition response: unit not given here
Procedure: Topoisomerase IV decatenation reactions were performed using 2.5 nM E. coli enzyme and 60 ng kinetoplast DNA (kDNA) in an assay buffer containing 50 mM HEPES-KOH (pH 7.6), 100 mM potassium glutamate, 10 mM magnesium acetate, 10 mM DTT, 1 mM ATP, and 50 μg/mL albumin. Assays with P. aeruginosa topoisomerase IV (3 nM) were conducted in a similar buffer but with 50 mM HEPES-KOH (pH 7.9), 100 mM potassium glutamate, 6 mM magnesium acetate, 6 mM DTT, 1 mM ATP, 2 mM spermidine, and 50 μg/mL albumin. For S. aureus topoisomerase IV assay, the reactions contained 4 nM enzyme in an assay buffer composed of 50 mM Tris-HCl (pH 7.5), 5 mM MgCl₂, 5 mM DTT, 1.5 mM ATP, 350 mM potassium glutamate, and 0.05 mg/mL albumin. The procedures followed were consistent with those used in the supercoiling assays. Decatenated minicircles were resolved on 0.8% agarose gels, while the kDNA substrate remained in the wells. Gels were stained with 0.8 μg/mL ethidium bromide solution for 10 min, followed by destaining. DNA bands were visualized using a gel documentation system, and compound inhibition analysis was carried out using the same procedures described for the supercoiling assays.

S. aureus ATCC 29213 = test: MIC broth microdilution; format: cell-based; conditions: Staphylococcus aureus, ATCC29213
[4] = target: E. coli GyrA S83L mutant gyrase (Escherichia coli, UniProt P0AES4+P0AES6, S83L); test: biochemical; format: biochemical; conditions: for Gyrase supercoiling inhibition response: GyrA S83L gyrase
K. pneumoniae = conditions: ref 6 (Hameed P et al., 2024); cited from earlier work
[5] = test system: E. coli MG1655 GyrA D82N, ParC D79N; test: microbe, parasite or virus in culture; format: cell-based; conditions: Escherichia coli
[6] = test system: multidrug-resistant (MDR) Gram-negative bacteria, Gram-positive bacteria, anaerobes, and biothreat pathogens; conditions: diverse global panel; cited from earlier work

Which “MIC90 against diverse global isolates” value (E. cloacae) does the source give for `Cn1c(=O)ccc2ccc(F)c(CCNC[C@H]3CN(c4cnc5c(n4)NC(=O)CO5)C(=O)O3)c21` [BWC0977] here?
The value was 2 µg/mL (≈ 4.27 µM).

What about the MIC (K. pneumoniae BAA 2784) of the same compound?
Its MIC is 0.125 µg/mL (≈ 0.267 µM).

What about the MIC [1] of the same compound?
The MIC was 0.03 µg/mL (≈ 0.064 µM).

What about the MIC (K. pneumoniae ATCC 13883) of the same compound?
The MIC was 0.06 µg/mL (≈ 0.128 µM).

And the “type of DNA breaks induced” value (E. coli topoisomerase IV)?
The value was “single-strand DNA breaks”.

What about the “MIC90 against diverse global isolates” value (A. baumannii) of the same compound?
Its value is 1 µg/mL (≈ 2.13 µM).

What about the MIC (E. coli wild-type strain) of the same compound?
The MIC was 0.01 µg/mL (≈ 0.0213 µM).

What about the “resistant colonies on exposure” value (E. coli ATCC 25922) of the same compound?
The value was “no resistant colonies”.

What about the MIC (A. baumannii ATCC 19606; ATCC19606) of the same compound?
The MIC was 0.125 µg/mL (≈ 0.267 µM).

What about the MIC90 (A. baumannii ATCC 19606; ATCC19606, read-out: MIC 90 in (μg/mL), A. baumannii ATCC 19606 (WT)) of the same compound?
The MIC90 was 0.15 µg/mL (≈ 0.32 µM).

What about the MIC (P. aeruginosa BAA 2794) of the same compound?
The MIC was 0.125 µg/mL (≈ 0.267 µM).

And the MIC90 ([2]; ATCC19606, read-out: MIC 90 in (μg/mL), resistant mutant colony 1)?
Its MIC90 is 0.6 µg/mL (≈ 1.28 µM).

What about the MIC90 ([2]; ATCC19606, read-out: MIC 90 in (μg/mL), resistant mutant colony 2) of the same compound?
Its MIC90 is 0.07 µg/mL (≈ 0.149 µM).

What about the MIC90 ([2]; ATCC19606, read-out: MIC 90 in (μg/mL), resistant mutant colony 3) of the same compound?
Its MIC90 is 0.07 µg/mL (≈ 0.149 µM).

What about the MIC90 ([2]; ATCC19606, read-out: MIC 90 in (μg/mL), resistant mutant colony 4) of the same compound?
The MIC90 was 0.07 µg/mL (≈ 0.149 µM).

What about the MIC90 ([2]; ATCC19606, read-out: MIC 90 in (μg/mL), resistant mutant colony 5) of the same compound?
Its MIC90 is 0.3 µg/mL (≈ 0.64 µM).

What about the IC50 [3] of the same compound?
The IC50 was 77 nM.

What about the “Topo IV decatenation inhibition response” value ([3]; P. aeruginosa topo IV, compound 0.0114 μM, source data Fig 2B, listed as 977, 0.0114 µM) of the same compound?
Its value is 7.06.

What about the inhibition at 0.0114 µM ([3]; P. aeruginosa topo IV, compound 0.0114 μM, source data Fig 2B, read-out: Topo IV decatenation inhibition response) of the same compound?
Its inhibition at 0.0114 µM is 10.9%.

And the “Topo IV decatenation inhibition response” value ([3]; P. aeruginosa topo IV, compound 0.0343 μM, source data Fig 2B, listed as 977, 0.0343 µM)?
Its value is 24.14.

What about the inhibition at 0.0343 µM ([3]; P. aeruginosa topo IV, compound 0.0343 μM, source data Fig 2B, read-out: Topo IV decatenation inhibition response) of the same compound?
The inhibition at 0.0343 µM was 18.9%.

And the “Topo IV decatenation inhibition response” value ([3]; P. aeruginosa topo IV, compound 0.1029 μM, source data Fig 2B, listed as 977, 0.1029 µM)?
The value was 63.17.

And the inhibition at 0.1029 µM ([3]; P. aeruginosa topo IV, compound 0.1029 μM, source data Fig 2B, read-out: Topo IV decatenation inhibition response)?
The inhibition at 0.1029 µM was 61.6%.

What about the “Topo IV decatenation inhibition response” value ([3]; P. aeruginosa topo IV, compound 0.3086 μM, source data Fig 2B, listed as 977, 0.3086 µM) of the same compound?
The value was 85.90.

What about the inhibition at 0.3086 µM ([3]; P. aeruginosa topo IV, compound 0.3086 μM, source data Fig 2B, read-out: Topo IV decatenation inhibition response) of the same compound?
The inhibition at 0.3086 µM was 88.3%.

And the “Topo IV decatenation inhibition response” value ([3]; P. aeruginosa topo IV, compound 0.9259 μM, source data Fig 2B, listed as 977, 0.9259 µM)?
Its value is 91.28.

What about the inhibition at 0.9259 µM ([3]; P. aeruginosa topo IV, compound 0.9259 μM, source data Fig 2B, read-out: Topo IV decatenation inhibition response) of the same compound?
The inhibition at 0.9259 µM was 91.1%.

What about the “Topo IV decatenation inhibition response” value ([3]; P. aeruginosa topo IV, compound 2.7778 μM, source data Fig 2B, listed as 977, 2.7778 µM) of the same compound?
The value was 91.48.

What about the inhibition at 2.7778 µM ([3]; P. aeruginosa topo IV, compound 2.7778 μM, source data Fig 2B, read-out: Topo IV decatenation inhibition response) of the same compound?
The inhibition at 2.7778 µM was 94.5%.

What about the “Topo IV decatenation inhibition response” value ([3]; P. aeruginosa topo IV, compound 8.3333 μM, source data Fig 2B, listed as 977, 8.3333 µM) of the same compound?
Its value is 92.85.

What about the inhibition at 8.3333 µM ([3]; P. aeruginosa topo IV, compound 8.3333 μM, source data Fig 2B, read-out: Topo IV decatenation inhibition response) of the same compound?
The inhibition at 8.3333 µM was 97.1%.

And the “Topo IV decatenation inhibition response” value ([3]; P. aeruginosa topo IV, compound 25 μM, source data Fig 2B, listed as 977, 25 µM)?
The value was 94.54.

And the inhibition at 25 µM ([3]; P. aeruginosa topo IV, compound 25 μM, source data Fig 2B, read-out: Topo IV decatenation inhibition response)?
Its inhibition at 25 µM is 99.2%.

And the MIC (S. aureus ATCC 29213)?
Its MIC is 0.007 µg/mL (≈ 0.0149 µM).

What about the IC50 ([4]; Fig. 6, read-out: IC50 S83L gyrase supercoiling) of the same compound?
Its IC50 is 3 nM.

And the “Gyrase supercoiling inhibition response” value ([4]; compound 0.0005 µM, source data Fig 6A, 0.0005 µM)?
Its value is 7.40.

And the “Gyrase supercoiling inhibition response” value ([4]; compound 0.0014 µM, source data Fig 6A, 0.0014 µM)?
Its value is 20.69.

What about the “Gyrase supercoiling inhibition response” value ([4]; compound 0.0041 µM, source data Fig 6A, 0.0041 µM) of the same compound?
The value was 57.16.

What about the “Gyrase supercoiling inhibition response” value ([4]; compound 0.012 µM, source data Fig 6A, 0.012 µM) of the same compound?
The value was 82.23.

And the “Gyrase supercoiling inhibition response” value ([4]; compound 0.037 µM, source data Fig 6A, 0.037 µM)?
Its value is 88.47.

And the “Gyrase supercoiling inhibition response” value ([4]; compound 0.111 µM, source data Fig 6A, 0.111 µM)?
Its value is 97.88.

And the “Gyrase supercoiling inhibition response” value ([4]; compound 0.333 µM, source data Fig 6A, 0.333 µM)?
The value was 98.84.

What about the “Gyrase supercoiling inhibition response” value ([4]; compound 1 µM, source data Fig 6A, 1 µM) of the same compound?
The value was 98.71.

And the “Gyrase supercoiling inhibition response” value ([4]; compound 3 µM, source data Fig 6A, 3 µM)?
Its value is 96.44.

What about the “potency shift relative to WT” value ([4]; quinolone-resistant S83L vs WT) of the same compound?
The value was < 3 fold.

What about the inhibition at 0.0014 µM ([4]; read-out: Gyrase supercoiling inhibition response, GyrA S83L gyrase, compound 0.0014 µM, source data Fig 6A) of the same compound?
The inhibition at 0.0014 µM was 35%.

And the inhibition at 0.0041 µM ([4]; read-out: Gyrase supercoiling inhibition response, GyrA S83L gyrase, compound 0.0041 µM, source data Fig 6A)?
The inhibition at 0.0041 µM was 60.7%.

And the inhibition at 0.012 µM ([4]; read-out: Gyrase supercoiling inhibition response, GyrA S83L gyrase, compound 0.012 µM, source data Fig 6A)?
The inhibition at 0.012 µM was 74.3%.

What about the inhibition at 0.037 µM ([4]; read-out: Gyrase supercoiling inhibition response, GyrA S83L gyrase, compound 0.037 µM, source data Fig 6A) of the same compound?
Its inhibition at 0.037 µM is 90.2%.

What about the inhibition at 0.111 µM ([4]; read-out: Gyrase supercoiling inhibition response, GyrA S83L gyrase, compound 0.111 µM, source data Fig 6A) of the same compound?
The inhibition at 0.111 µM was 91%.

What about the inhibition at 0.333 µM ([4]; read-out: Gyrase supercoiling inhibition response, GyrA S83L gyrase, compound 0.333 µM, source data Fig 6A) of the same compound?
The inhibition at 0.333 µM was 97.8%.

What about the inhibition at 1 µM ([4]; read-out: Gyrase supercoiling inhibition response, GyrA S83L gyrase, compound 1 µM, source data Fig 6A) of the same compound?
Its inhibition at 1 µM is 99.5%.

And the inhibition at 3 µM ([4]; read-out: Gyrase supercoiling inhibition response, GyrA S83L gyrase, compound 3 µM, source data Fig 6A)?
The inhibition at 3 µM was 97.9%.

And the “MIC90 against diverse global isolates” value (K. pneumoniae)?
The value was 2 µg/mL (≈ 4.27 µM).

What about the MIC [5] of the same compound?
The MIC was 7.5 µg/mL (≈ 16 µM).

What about the “minimum inhibitory concentration (MIC90) range” value [6] of the same compound?
Its value is 0.03 to 2 µg/mL.
